In paper PMC12155096 (International Journal of Molecular Sciences, 2025):
Like-named read-outs stand apart in the source and are kept apart here.

What was measured:
[1] = target: Photinus pyralis (firefly) luciferase (Photinus pyralis, UniProt P08659); experiment: biochemical; assay type: biochemical
human CYP1A2 [2] = target: T1, human CYP1A2 (Homo sapiens, UniProt P05177); conditions: human
T1 sequence (P05177 1-516): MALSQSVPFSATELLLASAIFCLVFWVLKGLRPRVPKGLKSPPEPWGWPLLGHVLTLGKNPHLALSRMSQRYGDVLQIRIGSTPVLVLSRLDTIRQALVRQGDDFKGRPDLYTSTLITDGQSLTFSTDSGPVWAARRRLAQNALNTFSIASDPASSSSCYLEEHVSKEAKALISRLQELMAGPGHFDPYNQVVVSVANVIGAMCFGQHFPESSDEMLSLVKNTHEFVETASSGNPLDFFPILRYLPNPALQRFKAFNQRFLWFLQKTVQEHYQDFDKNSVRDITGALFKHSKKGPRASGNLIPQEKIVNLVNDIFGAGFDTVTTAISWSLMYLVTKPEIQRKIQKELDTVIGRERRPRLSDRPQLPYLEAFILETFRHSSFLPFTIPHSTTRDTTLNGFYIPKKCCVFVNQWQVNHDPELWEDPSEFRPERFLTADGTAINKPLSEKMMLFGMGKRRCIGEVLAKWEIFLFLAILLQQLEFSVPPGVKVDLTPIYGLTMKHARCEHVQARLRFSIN

human CYP2C9 [3] = target: T2, human CYP2C9 (Homo sapiens, UniProt P11712); conditions: human
T2 sequence (P11712 whole entry): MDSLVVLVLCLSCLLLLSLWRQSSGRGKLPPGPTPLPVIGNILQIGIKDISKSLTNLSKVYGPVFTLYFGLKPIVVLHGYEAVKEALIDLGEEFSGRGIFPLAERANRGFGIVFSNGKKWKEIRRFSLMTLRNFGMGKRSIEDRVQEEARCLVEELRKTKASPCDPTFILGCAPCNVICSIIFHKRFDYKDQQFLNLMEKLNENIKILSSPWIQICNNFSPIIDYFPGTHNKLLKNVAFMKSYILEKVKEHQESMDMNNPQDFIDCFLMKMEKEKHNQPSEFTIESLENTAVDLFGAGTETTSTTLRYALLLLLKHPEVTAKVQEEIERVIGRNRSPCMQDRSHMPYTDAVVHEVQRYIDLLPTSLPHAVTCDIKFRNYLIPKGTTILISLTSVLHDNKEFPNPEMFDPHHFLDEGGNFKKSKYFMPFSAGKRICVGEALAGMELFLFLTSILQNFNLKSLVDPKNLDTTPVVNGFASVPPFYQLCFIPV

human CYP2C19 [4] = target: T3, human CYP2C19 (Homo sapiens, UniProt P33261); conditions: human
T3 sequence (P33261 whole entry): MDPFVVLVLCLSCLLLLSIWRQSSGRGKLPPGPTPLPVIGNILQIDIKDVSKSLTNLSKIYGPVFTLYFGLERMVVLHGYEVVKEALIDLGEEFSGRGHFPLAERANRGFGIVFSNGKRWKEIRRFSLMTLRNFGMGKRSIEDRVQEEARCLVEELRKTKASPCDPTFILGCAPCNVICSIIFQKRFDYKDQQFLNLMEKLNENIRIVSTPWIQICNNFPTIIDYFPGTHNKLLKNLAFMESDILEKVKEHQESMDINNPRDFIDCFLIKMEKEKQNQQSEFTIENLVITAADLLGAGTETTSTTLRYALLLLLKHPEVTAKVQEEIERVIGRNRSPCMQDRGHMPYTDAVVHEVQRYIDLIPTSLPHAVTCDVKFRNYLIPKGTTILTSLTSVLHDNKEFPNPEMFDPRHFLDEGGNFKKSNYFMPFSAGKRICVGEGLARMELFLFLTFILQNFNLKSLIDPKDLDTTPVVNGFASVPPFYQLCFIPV

human CYP2D6 [5] = target: T4, human CYP2D6 (Homo sapiens, UniProt P10635); conditions: human
T4 sequence (P10635 whole entry): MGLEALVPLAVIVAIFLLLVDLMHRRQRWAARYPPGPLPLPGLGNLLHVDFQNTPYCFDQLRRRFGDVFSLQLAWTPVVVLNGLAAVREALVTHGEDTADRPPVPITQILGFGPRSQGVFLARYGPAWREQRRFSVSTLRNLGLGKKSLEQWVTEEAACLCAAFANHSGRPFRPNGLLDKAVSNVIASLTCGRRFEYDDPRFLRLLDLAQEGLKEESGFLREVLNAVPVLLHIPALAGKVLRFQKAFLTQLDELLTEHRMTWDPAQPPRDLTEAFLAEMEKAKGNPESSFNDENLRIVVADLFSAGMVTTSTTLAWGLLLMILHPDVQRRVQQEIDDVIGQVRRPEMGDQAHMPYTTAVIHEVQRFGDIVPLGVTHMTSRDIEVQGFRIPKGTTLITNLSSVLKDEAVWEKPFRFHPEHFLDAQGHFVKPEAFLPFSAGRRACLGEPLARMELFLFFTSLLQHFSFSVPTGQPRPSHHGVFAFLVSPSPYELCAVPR

CYP3A4 [6] = target: T5, CYP3A4 (Homo sapiens, UniProt P08684)
T5 sequence (P08684 whole entry): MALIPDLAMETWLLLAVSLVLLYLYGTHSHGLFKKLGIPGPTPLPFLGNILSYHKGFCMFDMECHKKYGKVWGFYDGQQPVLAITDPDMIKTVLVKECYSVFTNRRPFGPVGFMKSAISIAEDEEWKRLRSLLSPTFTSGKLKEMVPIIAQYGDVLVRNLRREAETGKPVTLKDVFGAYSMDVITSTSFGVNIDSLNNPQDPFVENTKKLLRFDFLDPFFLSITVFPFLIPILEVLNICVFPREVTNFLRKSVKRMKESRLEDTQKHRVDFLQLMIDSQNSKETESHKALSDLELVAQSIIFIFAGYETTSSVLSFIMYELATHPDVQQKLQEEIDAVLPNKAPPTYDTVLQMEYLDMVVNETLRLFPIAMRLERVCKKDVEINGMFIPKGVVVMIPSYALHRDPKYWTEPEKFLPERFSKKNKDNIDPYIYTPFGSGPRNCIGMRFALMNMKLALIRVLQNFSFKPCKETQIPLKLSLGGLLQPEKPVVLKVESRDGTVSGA

human CYP1A2 [7] = target: T1, human CYP1A2; experiment: biochemical; conditions: CYP1A2 IC50 (half-maximal inhibitory concentration)
human CYP2C9 [8] = target: T2, human CYP2C9; experiment: biochemical
human CYP2C19 [9] = target: T3, human CYP2C19; experiment: biochemical; conditions: CYP2C19 IC50 (half-maximal inhibitory concentration)
human CYP2D6 [10] = target: T4, human CYP2D6; experiment: biochemical
CYP3A4 [11] = target: T5, CYP3A4; experiment: biochemical; conditions: CYP3A4 IC50 (half-maximal inhibitory concentration)
[12] = CYP2C9 IC50 (half-maximal inhibitory concentration)
[13] = CYP2D6 IC50 (half-maximal inhibitory concentration)

Photinus pyralis (firefly) luciferase, sequence (P08659 whole entry): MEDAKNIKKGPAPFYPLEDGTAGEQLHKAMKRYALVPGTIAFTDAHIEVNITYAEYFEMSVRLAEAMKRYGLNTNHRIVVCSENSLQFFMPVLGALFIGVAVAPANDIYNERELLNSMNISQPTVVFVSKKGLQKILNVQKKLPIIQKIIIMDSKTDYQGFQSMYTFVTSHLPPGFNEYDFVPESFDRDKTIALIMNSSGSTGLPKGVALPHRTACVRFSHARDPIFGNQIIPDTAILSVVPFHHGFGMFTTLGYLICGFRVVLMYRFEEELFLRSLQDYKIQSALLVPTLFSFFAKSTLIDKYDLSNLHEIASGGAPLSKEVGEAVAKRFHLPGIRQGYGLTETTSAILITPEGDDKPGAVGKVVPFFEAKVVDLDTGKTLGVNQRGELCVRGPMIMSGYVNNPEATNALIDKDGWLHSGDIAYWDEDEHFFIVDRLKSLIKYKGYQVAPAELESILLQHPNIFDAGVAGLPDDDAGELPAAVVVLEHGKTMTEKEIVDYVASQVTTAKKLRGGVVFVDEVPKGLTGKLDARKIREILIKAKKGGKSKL

Row | SMILES | Luciferase IC50 (half-maximal inhibitory concentration) [1] | CYP1A2 Efficacy (in parenthesis) (human CYP1A2 [2]) | CYP2C9 Efficacy (in parenthesis) (human CYP2C9 [3]) | CYP2C19 Efficacy (in parenthesis) (human CYP2C19 [4]) | CYP2D6 Efficacy (in parenthesis) (human CYP2D6 [5]) | CYP3A4 Efficacy (in parenthesis) (CYP3A4 [6]) | IC50 (human CYP1A2 [7]) [µM] | IC50 (human CYP2C9 [8]; [12]) [µM] | IC50 (human CYP2C19 [9]) [µM] | IC50 (human CYP2D6 [10]; [13]) [µM] | IC50 (CYP3A4 [11]) [µM] | IC50 (human CYP2C9 [8]) [µM] | IC50 (human CYP2D6 [10]) [µM]
1 | COc1c2ccoc2cc2oc(=O)ccc12 [5-Methoxypsoralen] | Inactive | 0.28 ± 0.03 (-96 ± 3) % | 2.43 ± 0.16 (-105 ± 2) % | 10.35 ± 3.33 (-151 ± 18) % | 0.1 ± 0.02 (11 ± 2) % | 9.16 ± 1.5 (-71 ± 2) % | 0.28 | 2.43 | 10.3 | 0.1 | 9.16 | – | –
2 | Clc1ccc(C2(Cn3cncn3)OCCO2)c(Cl)c1 [Azaconazole] | Inactive | 33.14 ± 4.22 (-89 ± 9) % | 15.38 ± 2.12 (-103 ± 8) % | 2.14 ± 0.96 (-148 ± 8) % | 65.83 ± 4.46 (-77 ± 14) % | 0.48 ± 0.03 (-62 ± 7) % | 33.1 | 15.4 | 2.14 | 65.8 | 0.48 | – | –
3 | CCOP(=S)(OCC)SCn1nnc2ccccc2c1=O [Azinphos-ethyl] | Inactive | 28.65 ± 6 (-88 ± 5) % | 0.57 ± 0.11 (-97 ± 0) % | 0.32 ± 0.06 (-141 ± 5) % | 35.57 ± 0 (-87 ± 6) % | 1.87 ± 0.34 (-77 ± 3) % | 28.6 | – | 0.32 | – | 1.87 | 0.57 | 35.6
4 | C=CCOC(=O)C(C)(C)OC(=O)c1cc(-n2c(=O)cc(C(F)(F)F)n(C)c2=O)ccc1Cl [Butafenacil] | Inactive | 35.06 ± 4.03 (-48 ± 4) % | 23.68 ± 7.01 (-109 ± 17) % | 50.02 ± 19.28 (-89 ± 23) % | 26.96 ± 4.59 (-70 ± 7) % | 0.51 ± 0.14 (-90 ± 4) % | 35.1 | 23.7 | 50 | 27 | 0.51 | – | –
5 | O=S(=O)(Oc1ccc(Cl)cc1)c1ccc(Cl)cc1 [Chlorfenson] | Inactive | 3.21 ± 1.48 (-95 ± 14) % | 18.81 ± 7.04 (-92 ± 16) % | 0.14 ± 0.02 (-95 ± 43) % | 21.56 ± 9.06 (-95 ± 15) % | 6.8 ± 1.64 (41 ± 6) % | 3.21 | 18.8 | 0.14 | 21.6 | 6.8 | – | –
6 | N#Cc1c(Cl)c(Cl)c(Cl)c(C#N)c1Cl [Chlorothalonil] | Inactive | 1.03 ± 0.19 (-97 ± 4) % | 6.61 ± 1.87 (-85 ± 10) % | 38.42 ± 34.42 (-114 ± 10) % | 34.91 ± 0 (-58 ± 3) % | 1.11 ± 0.13 (-78 ± 2) % | 1.03 | 6.61 | 38.4 | 34.9 | 1.11 | – | –
7 | CC(C1CC1)C(O)(Cn1cncn1)c1ccc(Cl)cc1 (centres unmarked) [Cyproconazole] | Inactive | 30.37 ± 9.95 (-33 ± 2) % | 0.13 ± 0.04 (-105 ± 6) % | 0.3 ± 0.07 (-141 ± 28) % | 38.25 ± 2.49 (-72 ± 6) % | 0.97 ± 0.57 (-70 ± 7) % | 30.4 | 0.13 | 0.3 | 38.3 | 0.97 | – | –
